Numbers after ± are expanded uncertainties.
How the values were obtained:
[1] = mn = molality of the nth substance listed, in mol/kg; conditions: 100 kPa, Liquid; for viscosity: Capillary tube (Ostwald / Ubbelohde) method; for mass density: Vibrating tube method
[2] = 100 kPa, Liquid, Capillary tube (Ostwald / Ubbelohde) method

## O [water] + CCCCCCCCn1cc[n+](C)c1.[Br-]
[1]; 288.15 K, m2 = 0
  viscosity: 1.139 ± 0.024 mPa·s
[1]; 293.15 K, m2 = 0
  viscosity: 1.002 ± 0.021 mPa·s
[1]; 298.15 K, m2 = 0
  viscosity: 0.89 ± 0.019 mPa·s
[1]; 303.15 K, m2 = 0
  viscosity: 0.798 ± 0.017 mPa·s
[1]; 308.15 K, m2 = 0
  viscosity: 0.719 ± 0.015 mPa·s
[1]; 313.15 K, m2 = 0
  viscosity: 0.653 ± 0.014 mPa·s

## O [water]
[2]; 288.15 K
  viscosity: 1.139 ± 0.024 mPa·s
[2]; 293.15 K
  viscosity: 1.002 ± 0.021 mPa·s
[2]; 298.15 K
  viscosity: 0.89 ± 0.019 mPa·s
[2]; 303.15 K
  viscosity: 0.798 ± 0.017 mPa·s
[2]; 308.15 K
  viscosity: 0.719 ± 0.015 mPa·s
[2]; 313.15 K
  viscosity: 0.653 ± 0.014 mPa·s

## CCCCCCCCn1cc[n+](C)c1.[Br-] [1-methyl-3-octylimidazolium bromide] + O
[1]; 288.15 K, m1 = 0.0035
  viscosity: 1.146 ± 0.024 mPa·s
  mass density: 999.275 ± 0.12 kg/m3
[1]; 288.15 K, m1 = 0.0111
  viscosity: 1.151 ± 0.024 mPa·s
  mass density: 999.611 ± 0.12 kg/m3
[1]; 288.15 K, m1 = 0.0185
  viscosity: 1.154 ± 0.024 mPa·s
  mass density: 999.913 ± 0.11 kg/m3
[1]; 293.15 K, m1 = 0.0035
  viscosity: 1.006 ± 0.021 mPa·s
  mass density: 998.364 ± 0.12 kg/m3
[1]; 293.15 K, m1 = 0.0111
  viscosity: 1.013 ± 0.021 mPa·s
  mass density: 998.697 ± 0.11 kg/m3
[1]; 293.15 K, m1 = 0.0185
  viscosity: 1.021 ± 0.021 mPa·s
  mass density: 998.983 ± 0.11 kg/m3
[1]; 298.15 K, m1 = 0.0035
  viscosity: 0.895 ± 0.019 mPa·s
  mass density: 997.197 ± 0.12 kg/m3
[1]; 298.15 K, m1 = 0.0111
  viscosity: 0.9 ± 0.019 mPa·s
  mass density: 997.499 ± 0.11 kg/m3
[1]; 298.15 K, m1 = 0.0185
  viscosity: 0.904 ± 0.019 mPa·s
  mass density: 997.781 ± 0.11 kg/m3
[1]; 303.15 K, m1 = 0.0035
  viscosity: 0.8 ± 0.017 mPa·s
  mass density: 995.792 ± 0.12 kg/m3
[1]; 303.15 K, m1 = 0.0111
  viscosity: 0.805 ± 0.017 mPa·s
  mass density: 996.09 ± 0.11 kg/m3
[1]; 303.15 K, m1 = 0.0185
  viscosity: 0.807 ± 0.017 mPa·s
  mass density: 996.32 ± 0.11 kg/m3
[1]; 308.15 K, m1 = 0.0035
  viscosity: 0.721 ± 0.015 mPa·s
  mass density: 994.141 ± 0.11 kg/m3
[1]; 308.15 K, m1 = 0.0111
  viscosity: 0.723 ± 0.015 mPa·s
  mass density: 994.373 ± 0.11 kg/m3
[1]; 308.15 K, m1 = 0.0185
  viscosity: 0.728 ± 0.015 mPa·s
  mass density: 994.59 ± 0.11 kg/m3
[1]; 313.15 K, m1 = 0.0035
  viscosity: 0.655 ± 0.014 mPa·s
  mass density: 992.331 ± 0.11 kg/m3
[1]; 313.15 K, m1 = 0.0111
  viscosity: 0.659 ± 0.014 mPa·s
  mass density: 992.622 ± 0.11 kg/m3
[1]; 313.15 K, m1 = 0.0185
  viscosity: 0.66 ± 0.014 mPa·s
  mass density: 992.876 ± 0.11 kg/m3

— the NIST ThermoML archive (doi:10.1016/j.jct.2014.07.005)
